Patent EP0194571A1, “Heterocyclic disulfides, process for their preparation and pharmaceutical preparations containing them” (HOECHST AKTIENGESELLSCHAFT, priority 1985, dated 1986)

Experiments:
Type in all cases: in vivo, NMRI-Mäuse
[1] = test system: zelluläre Immunantwort (DTH-Reaktion) gegen Schafserythrozyten; test: Delayed type hypersensitivity (DTH) reaction against sheep erythrocytes, foot swelling in mice; conditions: relative to maximal activation by compound of Beispiel 8 = 100 %, 1 x i.p. Tag 0
[2] = test system: Maus-Peritonealmakrophagen; test: Activation of mononuclear phagocytes: oxidative metabolism (chemiluminescence) of peritoneal macrophages from treated mice; conditions: relative to maximal activation by compound of Beispiel 8 = 100 %; 100 mg/kg i.p.
Method: (§1) Hier wurde der Einfluß der nach Ausführungsbeispiel 8 erhaltenen Prüfsubstanz auf die Stimulation von Peritonealmakrophagen bei 6- 8 Wochen alten NMRI-Mäusen untersucht. Mäuseweibchen erhielten auf parenteralem oder oralem Wege die Prüfsubstanz in einer Dosis von 25 mg/kg, 50 mg/kg, 100 mg/kg und 200 mg/kg. Der Kontrollgruppe wurde gepufferte Kochsalzlösung verabreicht. Drei Tage nach den Injektionen wurden die Mäuse getötet, und es wurden die Peritonealmakrophagen der Tiere auf ihren Aktivierungszustand hin untersucht. Als Maß der Makrophagenaktivierung wurde zum einen die Sekretion der lyosomalen Enzyme (ß-Galactosidase, ß-Glucuronidase, N-Acetyl-ß-D-Glucosaminidase) bestimmt. Auf der anderen Seite konnte in vergleichbaren Makrophagenkulturen die Pinozytose durch die Aufnahme von kolloidalem Gold (^19^8Au) - wie sie dem Fachmann bekannt ist - untersucht werden. Die Höhe des oxidativen Stoffwechsels bei Makrophagen gilt als ein weiteres Maß für ihren Aktivierungszustand. Gemessen wird diese Aktivität unter Zuhilfenahme des Biolumaten durch Bestimmung der Chemolumineszenz.
(§2) Zu diesem Zweck wurden entweder in Petrischalen von 30 mm Durchmesser 3 x 10^6 Makrophagen mit 1 ml TC 199-Kulturmedium oder aber 10^6 Makrophagen mit 100 µl in Rundbogen-Polyäthylen-Röhrchen (zur Bestimmung der Chemolumineszenz) bei 5 % G02 und 37°C kultiviert.
(§3) Nach einstündiger Bebrütung wurden die Kulturen gewaschen, um schwimmende Zellen zu entfernen. Die Chemolumineszenz (Röhrchenkultur) wurde dann direkt bestimmt, während die Petrischalen erneut 24 Stunden bei 37°C bebrütet wurden und danach die Enzym- und Pinozytoseaktivität in den Kulturen bestimmt wurde. Es wurden die nachstehenden Ergebnisse erzielt.
Die parenterale sowie die orale Behandlung von NMRI-Mäusen mit der gemäß Beispiel 8 hergestellten Prüfsubstanz stimuliert die Makrophagenaktivität und hat damit eine immunitätstimulierende Wirkung. So wird der oxidative Stoffwechsel bei Makrophagen mit der Generierung von Sauerstoffradikalen und dem damit verbundenen meßbaren Licht deutlich erhöht. Bei Dosierungen von 25 mg/kg aufwärts kommt es zu einer dosisabhänigen Steigerung der Makrophagenaktivität sowohl bei parenteraler als auch oraler Applikation.
(§4) Wie im Experiment 2 beschrieben, wurden NMRI-Mäuse mit den erfindungsgemäßen Verbindungen behandelt.
(§5) Als Test zur Erfassung der Immunstimulation wurde die Funktion der Makrophagen (Chemolumineszenz und Enzymaktivität) überprüft.
(§6) Tabelle 8 zeigt die relative Wirksamkeit der Prüfsubstanzen bezogen auf die Verbindung aus Beispiel 8, deren maximale Aktivierung (Differenz zwischen Kontrolle und Stimulation) 100 % entspricht. Der Tabelle ist zu entnehmen, daß im Vergleich zu Makrophagen aus unbehandelten Tieren, diese Zellen auch durch alle Prüfsubstanzen in ihrer Chemolumineszenzreaktion stark stimuliert und in ihrem Gehalt an lysosomalen Enzymen deutlich erhöht waren.

[3] = test system: Maus-Peritonealmakrophagen; test: Activation of mononuclear phagocytes: release of lysosomal hydrolases (exocytosis) by peritoneal macrophages from treated mice; conditions: lysosomal enzyme activity, relative to maximal activation by compound of Beispiel 8 = 100 %; 100 mg/kg i.p.
Method: as §1, §2, §3
Aus der Tabelle 3 ist zu entnehmen, daß Makrophagen von Kontrollmäusen nur geringe Mengen an lysosomalen Enzymen (ß-Glucuronidase, ß-Galactosidase, N-Acetyl-ß-D-Glucosaminidase) in den Kulturüberstand abgeben. Mononukleare Phagozyten von Mäusen, die parenteral oder oral mit der Prüfsubstanz 72 Stunden behandelt wurde, sezernieren die o.a. sauren Hydrolasen (ß-Glu, ß-Gal, N-Ac-Glu) deutlich mehr und weisen damit eine Dosiswirkungskurve auf, die bei allen gemessenen Enzymen eine Überlegenheit gegenüber den Kontrollen erkennen läßt. Es ist ersichtlich, daß die Prüfsubstanz eine stimulierende Wirkung auf die Makrophagenaktivität besitzt und zur Erhöhung der Enzymfreisetzung beiträgt.
as §4, §5, §6

| Compound | DTH-Reaktion (SRBC) ([1]; Dosis 100 mg/kg) | Makrophagenaktivität Chemolumineszenz [2] | Makrophagenaktivität Exozytose [3] | DTH-Reaktion (SRBC) ([1]; Dosis 20 mg/kg) | DTH-Reaktion (SRBC) ([1]; Dosis 200 mg/kg) | DTH-Reaktion (SRBC) ([1]; Dosis 10 mg/kg) |
| --- | --- | --- | --- | --- | --- | --- |
| Cc1sc(SSc2nc(CC(=O)O)c(C)s2)nc1CC(=O)O [Beispiel 14, Bis-(4-Carboxymethyl-5-methyl-thiazol-2-yl)-disulfid] | 118% | 97% | 93% | – | – | – |
| Oc1nc(SSc2nc(O)nn2-c2ccccc2)n(-c2ccccc2)n1 [Beispiel 1, Bis-(3-Hydroxy-1-phenyl-1,2,4-triazol-5-yl)-disulfid] | – | 30% | 48% | – | – | – |
| O=C(O)c1ccc2nc(SSc3nc4ccc(C(=O)O)cc4[nH]3)[nH]c2c1 [Beispiel 2, Bis-(5-Carboxy-benzimidazol-2-yl)-disulfid] | – | 72% | 53% | 88% | – | – |
| O=C(O)c1cnc(SSc2ncc(C(=O)O)s2)s1 [Beispiel 12, Bis-(5-Carboxy-1,3-thiazol-2-yl)-disulfid] | 96% | 39% | 54% | – | – | – |
| Cn1nc(O)c(=O)nc1SSc1nc(=O)c(O)nn1C [Beispiel 6] | 100% | 26% | 33% | – | – | – |
| Cc1nc(SSc2nc(C)c(C(=O)O)s2)sc1C(=O)O [Beispiel 13] | – | 81% | 77% | – | 147% | – |
| O=C(O)Cc1csc(SSc2nc(CC(=O)O)cs2)n1 [Beispiel 10, Bis-(4-Carboxymethyl-1,3-thiazol-2-yl)-disulfid] | – | 66% | 21% | – | – | 112% |
| C=C(Cl)Cn1c(SSc2nnc(O)c(=O)n2CC(=C)Cl)nnc(O)c1=O [Beispiel 5] | – | 37% | 45% | – | 61% | – |
